Like-named read-outs stand apart in the source and are kept apart here.
Key:
Assay type in all cases: cell-based, human
[1] = tested on: IRF-Lucia luciferase reporter (ISRE) in THP1-Dual cells; test: THP1-Dual IRF-Lucia luciferase reporter assay (ISRE activation); conditions: for EC50: read-out: THP1 IRF EC50; for IRF3 and NF-κB reporter activity: human THP1 and mouse J774 macrophage-like cells
Outline: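 Supernatant luminescence from the ISG54/ISRE-driven Lucia reporter was measured after 24 h exposure to 10 μM compound (LPS 313 ng/mL in control wells).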

[2] = THP1-Dual cytotoxicity (Cell Titer Glo, ATP); conditions: human, THP1-Dual cells, read-out: Thp1 cytotox CC50
Outline: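 CC50, the concentration killing half the cells, was derived from ATP-dependent CellTiter-Glo luminescence. Cells were THP1-Dual (human) and compound was tested as an 8-point dose-response series, with viability read in the same plate.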

[3] = tested on: NF-κB-SEAP reporter in THP1-Dual cells; test: THP1-Dual NF-κB-SEAP reporter counterscreen; conditions: for EC50: read-out: THP1 NFkB EC50
Outline: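 Reporters measured from supernatant after 24 h compound exposure (10 μM final) in PMA-differentiated (5 ng/mL, 48 h) THP-1 Dual monocytes: ISG54/ISRE-driven Lucia via QUANTI-Luc luminescence; NF-κB-driven SEAP via QUANTI-Blue, 1 h 37° C, 630 nm. Control wells received LPS at 313 ng/mL.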

[4] = Homo sapiens, THP1-Dual, Human Reporter Cell Line, 8-point dose response
[5] = Homo sapiens, THP1-Dual, Human Reporter Cell Line THP1

SMILES | EC50 [1, 4] [µM] | CC50 ([2]; Human Reporter Cell Line) [µM] | EC50 [3, 4] [µM] | EC50 [1, 5] [µM] | CC50 ([2]; Human Reporter Cell Line THP1) [µM] | EC50 [3, 5] [µM] | further results
Cc1ccc2c(=O)c3cccc(CC(=O)O)c3oc2c1C [DMXAA, 5,6-dimethylxanthenone-4-acetic acid] |  |  |  |  |  |  | ISRE activation in THP1-Dual cell line ([1]; THP1-Dual): not effective
O=C(Nc1ccc(N2CCN(C(=O)c3cccs3)CC2)cc1)c1ccc(Cl)c2ccccc12 [NA13] | ~1.55 | > 25 | 1.22 |  |  |  | 
CCOc1cccc(COc2ccc(C(=O)Nc3ccc(N4CCN(C(=O)c5cccs5)CC4)cc3)cc2)c1 [NA42, 4-((3-ethoxybenzyl)oxy)-N-(4-(4-(thiophene-2-carbonyl)piperazin-1-yl)phenyl)benzamide] | 3.6 | 121 | 3.04 |  |  |  | 
O=C(Nc1ccc(N2CCN(C(=O)c3ccsc3)CC2)cc1)c1ccc(OCc2ccccc2)nc1 [NA-1] | 1.94 | 10.5 | 2.07 |  |  |  | 
O=C(Nc1ccc(N2CCN(C(=O)c3cccs3)CC2)cc1)c1ccc(Br)cc1 [NA-14] | ~2.62 | > 25 | ~2.42 |  |  |  | 
Cc1c(Br)ccc(C(=O)Nc2ccc(N3CCN(C(=O)c4cccs4)CC3)cc2)c1C [NA-16] | 6.46 | > 25 | ~5.23 |  |  |  | 
O=C(Nc1ccc(N2CCN(C(=O)c3cccs3)CC2)cc1)c1sc2cc(Cl)ccc2c1Cl [NA-20] | 1.94 | 11.8 | 2.76 |  |  |  | 
O=C(Nc1ccc(N2CCN(C(=O)c3cccs3)CC2)cc1)c1cccc2c(Br)cccc12 [NA-21, 5-bromo-N-{4-[4-(2-thienylcarbonyl)-1-piperazinyl]phenyl}-1-naphthamide] | 0.73 | 39.4 | 1.08 |  |  |  | 
O=C(Nc1ccc(N2CCN(C(=O)c3cccs3)CC2)cc1)c1ccc(OCc2ccc(F)c(F)c2F)cc1 [NA-23] | 1.71 | 12.7 | ~2.31 |  |  |  | 
COc1cccc(COc2ccc(C(=O)Nc3ccc(N4CCN(C(=O)c5cccs5)CC4)cc3)cc2)c1 [NA-24, 4-((3-methoxybenzyl)oxy)-N-(4-(4-(thiophene-2-carbonyl)piperazin-1-yl)phenyl)benzamide] | 3.14 | 16.8 | 4.16 |  |  |  | 
Cc1ccc(COc2ccc(C(=O)Nc3ccc(N4CCN(C(=O)c5cccs5)CC4)cc3)cc2)cc1 [NA-25] | 3.29 | 35.5 | 5 |  |  |  | 
CCOc1ccc(C(=O)Nc2ccc(N3CCN(C(=O)c4cccs4)CC3)cc2)cc1Br [NA-30] | 2.68 | 18.8 | 1.05 |  |  |  | 
O=C(Nc1ccc(N2CCN(C(=O)c3cccs3)CC2)cc1)c1ccc(-c2cc3ccccc3oc2=O)cc1 [NA-32] | 1.43 | 36.6 | 3.13 |  |  |  | 
O=C(Nc1ccc(N2CCN(C(=O)c3cccs3)CC2)cc1)c1ccc(OCc2cccc(Cl)c2)cc1 [NA-33] | 1.84 | 9.58 | 1.62 |  |  |  | 
O=C(Nc1ccc(N2CCN(C(=O)c3cccs3)CC2)cc1)c1ccc(-c2ccncc2)cc1 [NA-38] | ~11.2 | > 25 | 3.46 |  |  |  | 
O=C(Nc1ccc(N2CCN(C(=O)c3cccs3)CC2)cc1)c1ccc(-c2ccccc2)cn1 [NA-39] | 7.02 | > 25 | 7.91 |  |  |  | 
O=C(Nc1ccc(N2CCN(C(=O)c3cccs3)CC2)cc1)c1ccc(-c2ccccc2)nc1 [NA-41] | 10.7 | > 25 | 12.5 |  |  |  | 
CCOc1cccc(COc2ccc(C(=O)Nc3ccc(N4CCN(C(=O)c5cccs5)CC4)cc3)cc2)c1 [NA-42, 4-((3-ethoxybenzyl)oxy)-N-(4-(4-(thiophene-2-carbonyl)piperazin-1-yl)phenyl)benzamide] |  |  |  |  |  |  | IRF3 and NF-κB reporter activity ([1]; 8-point dose response): high IRF3 activity and low off-target NF-κB activation
COc1ccc(C(=O)Nc2ccc(OCc3ccccc3)cc2)cc1[N+](=O)[O-] [NA-44] | 4.45 | 50.3 | 0.92 |  |  |  | 
O=C(Nc1ccc(N2CCN(C(=O)c3cccs3)CC2)cc1)c1ccc(OCc2ccccc2)nc1 [NA-59] | ~2.53 | 16 | ~2.57 |  |  |  | 

SMILES | EC50 [1, 4] [µM] | CC50 ([2]; Human Reporter Cell Line) [µM] | EC50 [3, 4] [µM] | EC50 [1, 5] [µM] | CC50 ([2]; Human Reporter Cell Line THP1) [µM] | EC50 [3, 5] [µM] | further results
Cc1ccc(NC(=O)c2cc(NC(=O)c3ccccc3)ccc2N2CCOCC2)cc1Cl [NB-1] |  |  |  | 2.53 | 32.8 | 2.54 | 
Cc1ccc(NC(=O)c2cc(NC(=O)Cc3ccccc3)ccc2N2CCOCC2)cc1Cl [NB-3] |  |  |  | ~1.57 | 52.5 |  | activation at 25 µM ([3]; THP1-Dual, 24 h, Human Reporter Cell Line THP1, @25 uM, read-out: THP1 NFkB % activation at peak): 38%
Cc1ccc(NC(=O)c2cc(NC(=O)c3cccs3)ccc2N2CCOCC2)cc1Cl [NB-8] |  |  |  | 4.7 | > 25 | 13.9 | 
Cc1ccc(NC(=O)c2cc(NC(=O)c3cccs3)ccc2N2CCOCC2)cc1 [NB-17] |  |  |  | 6.07 | > 25 | ~3.14 | 
O=C(Nc1ccc(N2CCOCC2)c(C(=O)Nc2ccc(OCc3ccccc3)cc2)c1)c1cccs1 [NB-18] |  |  |  | 2.23 | > 25 | 3.66 | 
Cc1ccc(NC(=O)c2cc(NC(=O)c3cccs3)ccc2N2CCOCC2)cc1Br [NB-23] |  |  |  | 3.27 | 30.5 | 4.59 | 
Cc1cc(NC(=O)c2sc3cc(Cl)ccc3c2Cl)ccc1NC(=O)c1ccco1 [NC-2] | 7.98 | > 25 | 15.4 |  |  |  | 
COc1ccc(C(=O)Nc2cc(-c3nc4cc(C)c(C)cc4o3)ccc2C)cc1[N+](=O)[O-] [ND13, N-(5-(5,6-dimethylbenzo[d]oxazol-2-yl)-2-methylphenyl)-4-methoxy-3-nitrobenzamide] |  |  |  | 0.975 | 8.76 | 0.556 | 
COc1ccc(C(=O)Nc2cc(-c3nc4ccccc4s3)ccc2C)cc1[N+](=O)[O-] [ND52, N-[5-(1,3-benzothiazol-2-yl)-2-methylphenyl]-4-methoxy-3-nitrobenzamide] |  |  |  | 3.89 | 27.6 | ~5.51 | 
COc1ccc(C(=O)Nc2nc(-c3cc4ccccc4oc3=O)cs2)cc1 [ND-1] |  |  |  | ~12.4 | > 25 | ~12.7 | 
COc1ccc(C(=O)Nc2cc(-c3nc4cc(C(C)C)ccc4o3)ccc2C)cc1[N+](=O)[O-] [ND-2] |  |  |  | 1.12 | 27.6 | 4.47 | 
CC(C)CC(=O)Nc1ccc2oc(-c3cccc(I)c3)nc2c1 [ND-5] |  |  |  | 14.7 | > 25 | 12.3 | 
O=C(Cc1ccc(Cl)cc1)Nc1cccc(-c2nnc(-c3ccco3)o2)c1 [ND-7] |  |  |  | 8.42 | > 25 | 6 | 
COc1ccc(C(=O)Nc2cc(-c3nc4cc(C)c(C)cc4o3)ccc2C)cc1[N+](=O)[O-] [ND-13, N-(5-(5,6-dimethylbenzo[d]oxazol-2-yl)-2-methylphenyl)-4-methoxy-3-nitrobenzamide] |  |  |  |  |  |  | IRF3 and NF-κB reporter activity ([1]; 8-point dose response): high IRF3 activity and low off-target NF-κB activation
COc1ccc(-c2nc3cc(C(C)C)ccc3o2)cc1NC(=O)c1ccc(C)c([N+](=O)[O-])c1 [ND-16] |  |  |  | 3.12 | 32.7 | 3.25 | 
COc1ccc(C(=O)Nc2cc(-c3nc4ccccc4s3)ccc2C)cc1[N+](=O)[O-] [ND-38] |  |  |  |  |  |  | EC50 ([1]; Human Reporter Cell Line THP1): 4.29 µM; EC50 ([3]; Human Reporter Cell Line THP1): ~3.12 µM
COc1ccc(C(=O)Nc2cccc(-c3nc4ncccc4o3)c2)cc1Br [ND-47] |  |  |  | 10.6 | > 25 | 2.1 | 
Cc1ccc(-c2nc3ccccc3s2)cc1NC(=O)c1cccc(Cl)c1 [ND-80] |  |  |  | 6.16 | 33.9 | ~6.55 | 
ClCCCOc1ccc(-c2nc3cc(OCCCN4CCCC4)ccc3o2)cc1 [ND-94] |  |  |  | 32.1 | > 25 | ~23.6 | 
